In publication PMC3621862, “Re-Directing an Alkylating Agent to Mitochondria Alters Drug Target and Cell Death Mechanism” (PLoS ONE, 2013):
Entries after “also recorded” stand apart in the source; their conditions may differ. Where two headings read alike, the source gives them in different places. Values belong to the compound of their own block, whether it stands above or below them. Square brackets hold non-standard residues; d marks the D form. Peptide text beside a SMILES is read from it. * marks the point of attachment. ξ: configuration not given here. Chlorambucil = O=C(CCCc1ccc(N(CCCl)CCCl)cc1)*; ξCha = NC(CC1CCCCC1)C(=O)O

Legend:
[1] = system: caspase-3 and PARP-1 cleavage in HeLa cells; format: cell-based
[2] = Rate of hydrolysis in saline or plasma (HPLC-MS/MS); format: in vitro ADME, mouse; conditions: 37°C
Method: Stability of mt-Cbl and MPP in mouse plasma: Thiazole orange-labelled conjugates were incubated in mouse plasma for three weeks at room temperature. The stability of these compounds was then assessed via reverse-phase HPLC. A single peak with the identical retention time to a fresh conjugate control was considered to be a positive result for stability in mouse plasma. Rate of mt-Cbl and Cbl hydrolysis in saline or plasma: Cbl and mt-Cbl were incubated in saline or plasma for 0 h, 0.5 h, 1 h, 1.5 h, 2 h, 2.5 h and 3 h at 37°C. Following this, plasma proteins were precipitated in four volumes of ice-cold acetonitrile and centrifuged at 10,000×g for 10 min, 4°C. The resulting supernatant was analyzed via HPLC-MS/MS to determine active drug concentrations in each sample.

[3] = system: caspase 3/7 activity in HeLa cells; experiment: Caspase-Glo 3/7 activity assay; format: cell-based; conditions: 6 hours
Method: (§1) HeLa cells were seeded at 7500 cells/well a day prior to experiments in white flat clear-bottom 96-well plates (Greiner Bio one). Cells were incubated with Cbl, Cbl conjugates, staurosporin or digitonin as appropriate at indicated concentrations. Cellular ATP levels and protease activity were measured after a 90 minute incubation using the Mitochondrial ToxGlo assay (Promega) as per manufacturer's instructions. To assess caspase 3/7 activity, cells were incubated with compound for 6 hours prior to measurement with the Caspase-Glo® 3/7 Assay (Promega) as per manufacturer's instructions.

[4] = in water; cited from earlier work
[5] = Maximal tolerated dose; conditions: mouse, in vivo, ip; NOD/SCID mice, intraperitoneal
Method: Non-obese diabetic/severe combined immunodeficiency (NOD/SCID) mice were treated intraperitoneally with increasing concentrations of Cbl (10–500 mg/kg) or mt-Cbl (10–50 mg/kg). Animals were monitored daily for weight loss, lethargy and other signs of physical discomfort. […] All animal studies were carried out according to the regulations of the Canadian Council on Animal Care and with the approval of the Ontario Cancer Institute Animal Ethics Review board or the Faculty of Medicine Animal Care Committee at the University of Toronto.

[6] = system: mouse livers; experiment: Liver toxicity: H&E histology and plasma liver enzymes; format: in vivo; conditions: mt-Cbl 15 mg/kg, Cbl 3.7 mg/kg every other day for 21 days
Method: Mice were treated every other day with equimolar doses of either mt-Cbl (15 mg/kg), Cbl (3.7 mg/kg) or vehicle control for 21 days by Kard Scientific (Beverly, MA). Following sacrifice, mouse livers and K562 xenograft tumors were fixed in 10% formalin overnight and then transferred to 70% ethanol. Samples were then paraffin-embedded, sectioned and stained in a standard manner by the Pathology Research Program Laboratory at Toronto General Hospital. Biotin-conjugated secondary antibodies, avidin horseradish peroxidase and the chromogenic diaminobenzidine tetrahydrochloride (DAB) were used for detection. Slides were imaged at 20× and then analyzed using Aperio ImageScope Software (Aperio Technologies, Vista, California). Positive pixels were identified and counted using the Positive Pixel Count V9 algorithm in this software. Quantification was performed on ten representative squares of 2500×2500 μm each and an average was calculated. % Positive Pixels was determined by dividing the positive pixel count by the total number of pixels analyzed. A standard hematoxylin and eosin (H&E) staining was performed on liver sections and these were reviewed for hepatotoxicity and injury by a pathologist with liver expertise. In addition, liver toxicity was evaluated though determination of levels of specific liver enzymes. Mice were treated every other day with equimolar doses of either mt-Cbl (15 mg/kg), Cbl (3.7 mg/kg) or vehicle control for 21 days. Three days after the final dose, mouse plasma samples were tested for levels of bilirubin, alkaline phosphatase and aspartate transaminase in a standard manner.

[7] = Pharmacokinetic study, plasma levels by HPLC-MS/MS; format: in vivo; conditions: mouse, ip, CD1 mice, single dose 10 mg/kg intraperitoneal; for AUC: unit inferred
Method: Animal handling and dose administration was performed by Kard Scientific (Beverly, MA). Six CD1 mice were treated with a single dose of 10 mg/kg mt-Cbl or Cbl via intraperitoneal injection. Blood samples were collected at 15 min, 30 min, 1 h, 2 h, 4 h and 8 h in heparin-treated tubes. Samples were kept on ice until centrifugation at 1,500 rpm for 20 min, 4°C and the resulting plasma supernatants were transferred to fresh tubes. Plasma proteins were precipitated with four volumes of ice-cold acetonitrile and spun at 10,000×g for 10 min, 4°C. The resulting supernatant was analyzed via HPLC-MS/MS to determine plasma concentrations of Cbl and mt-Cbl.

[8] = system: leukemia; parameters: method as in PMID 8241831; conditions: cited from earlier work
[9] = Biodistribution in K562 xenograft mice; format: in vivo, mouse; conditions: K562 xenograft NOD/SCID mice; mt-Cbl 15 mg/kg, Cbl 100 mg/kg i.p. daily for 10 days
Method: K562 cells (3×10^6) were injected subcutaneously into the flanks of ten NOD/SCID mice (Ontario Cancer Institute, Toronto, ON). Palpable tumours were formed 7 days after injection and mice were then treated daily for 10 days with Cbl (100 mg/kg) or mt-Cbl (15 mg/kg) by intraperitoneal injection. Mice were sacrificed 17 days after injection of cells and organs were excised for analysis of Cbl and mt-Cbl biodistribution profiles. The liver, kidneys, spleen, heart, lungs and brain were removed from mice following sacrifice and immediately frozen in dry ice until analysis. Tissues were homogenized in four volumes of ice-cold acetonitrile and centrifuged at 10,000×g for 10 min, 4°C. The resulting supernatant was analyzed via HPLC-MS/MS to determine drug concentrations in each tissue.

[10] = Alkylation activity with 4-(4-nitrobenzyl)pyridine; conditions: absorbance of 4-(4-nitrobenzyl)pyridine
Text: Supplementary file pone.0060253.s005.pdf: Figure S5 Characterization of Cbl-TPP. (a) Chemical structure of Cbl-TPP . Cbl was conjugated to a triphenylphosphonium ion to generate Cbl-TPP. (b) Alkylation activity of Cbl, mt-Cbl and Cbl-TPP.

[11] = system: mitochondrial proteins of HL-60 cells; experiment: Cbl-conjugate labeling of mitochondrial proteins (immunoblot); format: cell-based; conditions: HL60 cells, 30 min; biotin-labeled mt-Cbl 1.5 μM or Cbl-TPP 10 uM
Method: HL-60 cells (25 million cells) were incubated with biotin-labeled mt-Cbl peptide (Biotin-mt-Cbl) (0, 1.5 μM) or Cbl-TPP (10 uM) for 30 min, after which the cells were collected. The cells were then washed with ice-cold PBS, and their mitochondria were isolated using Mitochondrial Isolation Kit for Mammalian Cells (Thermo Scientific). The mitochondrial pellets were then lysed using RIPA buffer plus protease inhibitors for 30 min. at 4°C and the total protein concentration determined using BCA assay. Lysates (10 μg of total protein) were then loaded onto 7% gels and run at 30 V for 30 min. and 150 V for 1 hour using a tris-tricine buffer system (Cathode buffer: 0.1 M Tris, 0.1 M Tricine, and 0.1% SDS, Anode buffer: 0.2 M Tris-Cl, pH8.9). Immunoblotting was continued as described previously using biotin antibody to detect the biotin tag on mt-Cbl or TPP antibody to detect Cbl-TPP.

[12] = system: 143B cells and 143B ρ° cells; experiment: CCK-8 cell viability in 143B parental and ρ° cells; format: cell-based; conditions: overnight incubation, various doses
[13] = system: HeLa cells; experiment: Mitochondrial ToxGlo assay, protease activity and cellular ATP levels; format: cell-based; conditions: 90 minutes, various doses (over EC50)
Method: as §1

[14] = system: mtDNA of HL-60 cells; experiment: Cbl-conjugate labeling of mtDNA (dot blot with TPP antibody); format: cell-based; conditions: 10 uM, 30 min
Method: HL-60 cells (25 million cells) were incubated with Cbl-TPP (10 uM) for 30 min, after which the cells were collected. The cells were then washed with ice-cold PBS, and their mitochondria were isolated using Mitochondrial Isolation Kit for Mammalian Cells (Thermo Scientific). The mtDNA was extracted from the mitochondrial pellets using AllPrep DNA/RNA Mini Kit (QIAGEN). DNA concentration was measured using a NanoDrop 1000 Spectrophotometer (Thermo Scientific) and then normalized (10 ng/μl). After this, a nitrocellulose membrane was spotted with untreated and treated DNA and UV crosslinked using UV Stratalinker 1800 (Stratagene) The membrane was blocked with 5% BSA-TBST for 1 hr at room temperature and then probed with TPP antibody (1∶5000) at 4°C overnight. Then the membrane was washed and visualized with chemiluminescence detection (GE Amersham).

[15] = system: HeLa cells; conditions: 18 hours treatment
[16] = Stability in mouse plasma over three weeks (HPLC); conditions: three-week incubation, HPLC single peak

SMILES: O=C(O)CCCc1ccc(N(CCCl)CCCl)cc1 [Cbl, chlorambucil, reference compound]
Cleavage of caspase-3 and PARP-1 ([1]; HeLa, Cbl 750 μM, 8 hours, Q-VD-Oph 20 μM pretreatment): induced the cleavage and activation of caspase-3
half-life ([2]; mouse plasma): 1 h
half-life ([2]; mouse, saline): 1 h
Caspase-3/7 activity [3]: increase in caspase-3/7 activity in a dose-dependent manner
half-life [4]: 0.5 h
MTD [5]: 400 mg/kg
Liver histology (H&E) [6]: histologically normal with no features of injury or toxicity
Plasma levels of bilirubin, alkaline phosphatase and aspartate aminotransferase [6]: No significant change
Cmax [7]: 200 ng/mL
half-life [7]: 0.75 h
AUC [7]: 147 ng·h/mL
Initial response rate in patients [8]: 40–60%
Accumulation in liver [9]: site of greatest accumulation
Levels in kidneys [9]: very low levels

SMILES: O=C(CCCc1ccc(N(CCCl)CCCl)cc1)NCCC[P+](c1ccccc1)(c1ccccc1)c1ccccc1 [Cbl-TPP]
Alkylation activity (rate of alkylation) [10]: retained alkylation activity very similar to that observed with the MPP conjugated form of mt-Cbl; also recorded: reduces its alkylation activity
Alkylation of mitochondrial proteins [11]: Alkylation of both mtDNA and proteins
Toxicity in 143B parental versus mtDNA-free ρ° derivative [12]: overlapping toxicity profiles
Cellular ATP level [13]: drastic drop in ATP cellular levels
Protease activity [13]: significant increase in protease activity
Alkylation of mtDNA [14]: Alkylation of both mtDNA and proteins

Stability in mouse plasma: stable
SMILES: CC(=O)NC(CC1CCCCC1)C(=O)N[C@H](CCCNC(=N)N)C(=O)NC(CC1CCCCC1)C(=O)N[C@H](CCCNC(=N)N)C(=O)NC(CC1CCCCC1)C(=O)N[C@H](CCCNC(=N)N)C(N)=O (stereo partly drawn) [MPP] (Ac-[ξCha][dR][ξCha][dR][ξCha][dR]-NH2; N-terminus and C-terminus assumed)

SMILES: CC(C)[C@H](NC(=O)c1ccc2ccccc2n1)C(=O)N[C@@H](CC(=O)O)C(=O)COc1c(F)cccc1F [Q-VD-Oph]
Cleavage of caspase-3 and PARP-1 [1]: suppressed the effects of Cbl treatment

SMILES: N=C(N)NCCC[C@@H](NC(=O)C(CC1CCCCC1)NC(=O)[C@@H](CCCNC(=N)N)NC(=O)C(CC1CCCCC1)NC(=O)[C@@H](CCCNC(=N)N)NC(=O)C(CC1CCCCC1)NC(=O)CCCc1ccc(N(CCCl)CCCl)cc1)C(N)=O (stereo partly drawn) [mt-Cbl] (Chlorambucil-[ξCha][dR][ξCha][dR][ξCha][dR]-NH2)
Half-life (hydrolysis) ([2]; mouse plasma): 1 h
half-life ([2]; mouse, plasma, saline): 1 h
LD50 ([15]; HeLa after siEXOG transfection): 4.7 µM
LD50 ([15]; HeLa after siNT (untargeted siRNA control) transfection): 3.5 µM
MTD [5]: 50 mg/kg
Stability in mouse plasma [16]: stable in mouse plasma
Liver histology (H&E) [6]: histologically normal with no features of injury or toxicity
Plasma levels of bilirubin, alkaline phosphatase and aspartate aminotransferase [6]: No significant change
Cmax ([7]; in vivo): 800 ng/mL
half-life ([7]; in vivo): 6 h
AUC ([7]; in vivo): 3560 ng·h/mL
Accumulation in liver [9]: site of greatest accumulation
Accumulation in tumors compared to Cbl [9]: ~250 fold
Levels in kidneys [9]: very low levels
